Assay results: patent US20210378247A1 (priority 2018, published 2021)

Tests used:
Type in all cases: in vivo
[1] = test system: Phakopsora pachyrhizi; test: Soybean detached leaf disk assay, soybean rust control; details: detached leaf disks, strains 1×10^8 CFU/mL, azoxystrobin 0.5 ppm
Procedure: The susceptible soybean cultivar Williams 82 was used. Soybean plants were planted every 2 weeks and placed inside a growth chamber (Percival Scientific, Inc., Boone, Iowa) maintained at 75% relative humidity with a cycle of 14 h of light (350 μmol m^−2 s^−1 PAR) and 10 h of darkness at 24 and 23° C., respectively, for a constant supply of 2 to 3 week-old rust-free leaves. A mixture of P. pachyrhizi urediniospores obtained from infected soybean leaves collected from Gadsden County, Fla. in 2015 and 2016 was used in this experiment. The details of maintenance and increase of P. pachyrhizi urediniospores have been described elsewhere (Twizeyimana and Hartman 2010, Plant Dis. 94:1453-1460).
Leaf disks (3.5-cm diameter each) were sprayed with 120 μL of each bacterial strain of interest (1×10^8 CFU/mL of sterile distilled water) using a fingertip sprayer (Container & Packaging Supply, Eagle, Id.) fitted to a 15 mL conical centrifuge tube (Fisher Scientific, Cat No. 14-59-53A). […]
Rust severity was scored by counting the number of sporulating uredinia in two arbitrarily selected 1-cm diameter circle of leaf tissue from an inoculated leaf disk (Table 7). Data was analyzed using analysis of variance (ANOVA) in PROC GLM of SAS (version 9.4; SAS Institute Inc., Cary, N.C.) and significant differences (P<0.05) were observed among treatments.

[2] = test system: Phytophthora infestans; details: late blight, tomato leaf disk; strains 1×10^8 CFU/ml, mefenoxam 5 ppm; severity assessed after 7 days
[3] = test system: Colletotrichum sublineolum; test: Sorghum detached leaf assay, anthracnose disease control; details: strains 1×10^8 CFU/mL, pyraclostrobin 10 ppm, severity assessed after 7 days
Procedure: Sorghum cultivar 12-GS9016-KS585 was grown in the greenhouse for a steady supply of leaf tissue for the bacterial strain evaluation. Fully expanded sorghum leaves from 4-6 weeks old plants were excised and cut into equal pieces, 2.5 cm wide. Colletotrichum sublineolum, (obtained from the Dr. Isakeit laboratory at Texas A&M University) was grown on 20% Oatmeal agar for 14 days. The actively growing culture was flooded with sterile distilled water, dislodging the spores. The concentration of the suspension was then adjusted to 1×10^6 spores/mL. Tween 20 was then added to the suspension to 0.05%.
Each of the bacterial strains of interest was streaked onto Luria Bertani (LB) agar petri plates. A single colony was picked and placed in 50 ml of LB liquid medium or in liquid culture (CHA medium; per L, NaCl (5 g), tryptone (10 g), nutrient broth (8 g), CaCl2 (0.14 mM), MgCl2.6H2O (0.2 mM), and MnCl2.4H2O (0.01 mM)) in a 250-ml flask. […]
Anthracnose severity was assessed on a scale of 0-4 after 7 days according to Prom, et al., 2016 (Plant Path J. 15(1): 11-16), with few modifications. […] Results (Table 4) were analyzed using analysis of variance (ANOVA) in JMP® (version 13.2.1; SAS Institute Inc., Cary, N.C.) and significant differences (P<0.05) were observed among bacterial strains.

[4] = test system: Podosphaera xanthii; test: Detached squash leaf disk assay, powdery mildew control; details: detached squash leaf disks, tebuconazole 10 ppm, incubated six days
Procedure: Leaf disks of healthy squash leaves were excised and cut into uniform leaf disks 35 mm in diameter using a large cork borer. An experimental unit consisted of a single leaf disk, each treated with a suspension of the selected bacterium. Treatments included AgBiome strains AIP061382, AIP075655, and AIP029105, and control treatments. Controls were non-inoculated and inoculated leaf disks, and the synthetic fungicide tebuconazole at 10 ppm as a positive control. Bacterial strains were prepared as described in Example 2. Each leaf disk was sprayed with 200 μL of the treatment (bacterial suspension or synthetic fungicide) on the adaxial surface 24 hours before inoculation with the pathogen, Podosphaera xanthii (strain obtained from Dr. McGrath laboratory, Cornell University). After treatment with the fungicide, leaf disks were incubated in the dark for 24 hours at 23° C.
Leaf disks were inoculated by spraying a 1×10^6 suspension of P. xanthii conidia on the treated leaf surface. Treatments were placed into sealed clear plastic boxes and incubated for six days at 25° C. with a relative humidity of 80% and a 12 hour photoperiod. […] The number of powdery mildew colonies were also recorded for each treatment. […] Data was analyzed in SAS JMP version 14.0.

[5] = test system: Mycosphaerella fijiensis; test: Grand Nain leaf piece assay, black sigatoka control; details: Grand Nain leaf pieces, strains 1×10^8 CFU/mL, mancozeb 10 ppm
Procedure: The susceptible musa cultivar Grand Nain was used. Plants were maintained in the greenhouse for a constant supply of disease-free leaves. The inoculum used in this evaluation was a M. fijiensis culture obtained from the International of Tropical Agriculture (IITA), Ibadan, Nigeria and was maintained on V8 Juice agar.
Smaller leaf pieces (4 cm long×3 cm wide) were cut from the excised leaf. Two leaf pieces were placed in plastic petri dishes with adaxial side on agar amended with 5 mg/liter gibberellic acid. Leaf pieces were sprayed with 120 μL of bacterial strain (1×10^8 CFU/mL of sterile distilled water) using a fingertip sprayer. Petri dishes with leaf pieces were incubated at room temperature in the dark for 24 h. Leaf pieces were then inoculated with a mycelial suspension of M. fijiensis, Mycelial fragments scraped from growing cultures were cut in smaller mycelial tips in sterile distilled (in 50 ml conical tubes) using a homogenizer (Omni International, Kennesaw, Ga.). […]
Data recorded was the most progressed stage on inoculated leaves at the time of data collection (there are six recognized stages for black sigatoka symptom development). Data was analyzed using analysis of variance (ANOVA) in PROC GLM of SAS (version 9.4; SAS Institute Inc., Cary, N.C.) and significant differences (P<0.05) were observed among treatments.

[6] = test system: Colletotrichum sublineolum; test: Greenhouse assay, sorghum anthracnose on sorghum plants; details: greenhouse sorghum plants cv. Seso3; strains 5 g/L sprayed weekly for three weeks
Procedure: Sorghum plants (cv. Seso3) were planted in the greenhouse. Thirty five days post planting, the plants were treated with microbial strains (AIP029105, AIP075655 or AIP061382) at the rate of 5 g/L. Other treatments included inoculated check and a fungicide (Mancozeb). The treatments were arranged in a randomized complete block design with three replications, each consisting of three plants. The treatments were sprayed onto the plant until run off. Treatment with biocontrol was done weekly for three consecutive weeks.
One day post treatment, the plants were inoculated with a suspension of Colletotrichum sublineolum spores. The inoculum was prepared from a fungal isolate obtained from naturally infected sorghum in Eastern Uganda. The isolate was cultured on potato dextrose agar (PDA; Farm Eur. Laboratories Madrid, Spain), at 26-28° C. for two weeks to achieve sporulation. […]
Disease incidence was carried out by observing individual plants for the appearance of anthracnose symptoms, starting at 7 days post inoculation, and thereafter on a weekly basis for five weeks. Any plant showing anthracnose symptoms was recorded and contributed to the overall number of infected plants (incidence) succumbing to the disease irrespective of the severity. […] Data was analyzed using analysis of variance (ANOVA) in JMP® (version 14.0.0; SAS Institute Inc., Cary, N.C.).

CO/C=C(/C(=O)OC)c1ccccc1Oc1cc(Oc2ccccc2C#N)ncn1 [Azoxystrobin]
Percent Disease Control [1]: 97.0%

COCC(=O)N(c1c(C)cccc1C)[C@H](C)C(=O)OC [Mefenoxam]
Percent Disease Control, Confirmation [2]: 75.0%
Percent Disease Control, Primary screen [2]: 75.0%

COC(=O)N(OC)c1ccccc1COc1ccn(-c2ccc(Cl)cc2)n1 [Pyraclostrobin]
Percent Disease Control, Confirmation [3]: 97.1%
Percent Disease Control, Primary screen [3]: 96.2%

CC(C)(C)C(O)(CCc1ccc(Cl)cc1)Cn1cncn1 (centres unmarked) [Tebuconazole]
Percent Disease Control [4]: 67.0%

Mancozeb
Percent Disease Control [5]: 83.7%
Percent Disease Control [6]: 52.9a %
